Laboratory results as given in patent US20040229268A1, “Method and kit for identifying antibiotic-resistant microorganisms” (priority 2003, published 2004).

How the values were obtained:
Type in all cases: binding, S. aureus
[1] = system: mecA gene; rRNA (pan-bacterial probe); test: Hybridization Protection Assay (HPA), AE-labeled probes, thermally lysed specimens (Examples 1-2)
Experimental: The specimens were lysed by suspending approximately 5×10^8 cells in a lysis buffer (0.1% lithium lauryl sulfate, 1 mM EDTA, 20 mM lithium succinate, pH 5.5) and then incubating in a heat block set at 110° C. for 20 minutes. Thermal lysis of a variety of other specimens was effected under a range of temperature (heat block set at about 95° C. to 110° C.) and time (about 10 to 25 minutes) conditions. The lysed samples were tested for the presence of target sequences complementary to the probes using a Hybridization Protection Assay (HPA) as described by Arnold et al., in Clin. Chem. 35:1588(1989) and U.S. Pat. No. 6,004,745. 50 μl of the heat-treated suspension was incubated with an equal volume of AE-labeled probe in 2× hybridization buffer (1.2 M LiCl, 2% lithium lauryl sulfate, 20 mM EDTA, 20 mM EGTA, 100 mM lithium succinate, pH 5.5) at 60° C. for 30 minutes. The pH of succinate solutions may range from about 4.5 to about 5.5, although it is desirable to use a pH of 4.8 for succinate buffering. 300 μl of a selection reagent (0.6 M borate buffered solution, pH 8.5; note, pH may vary from 8.0 to 9.0) was added, the mixture was heated at 60° C. for 10 minutes to effect differential hydrolysis, and the samples were read in a GEN-PROBE® LEADER® luminometer using sequential 300 μl injections of 0.1% H2O2 and 1 N NaOH solutions (see Arnold et al, supra; GEN-PROBE® Detection Reagent Kit, Cat. No. 1791 may be used).
Procedures similar to those described in Example 1 were conducted using a large number of bacterial samples, except that parallel hybridization reactions employed a pan-bacterial probe which targeted rRNA (Probe Reagent 1, GEN-PROBE® MTC-NI Kit, catalog no. 4573). […] The pan-bacterial probe reagent served as a positive control for lysis of all of the specimens. In this procedure each sample was tested against a panel of the three probes contained in separate hybridization reactions. Aliquots of the samples tested using the pan-bacterial probe reagent were diluted 1:3000 prior to performing luminometry so that results fell within the linear range of the detector. The signals indicated lysis and detection of ribosomal nucleic acids in each of the samples. These values depended on the number of bacterial cells in the specimen, as well as on the extent of cell lysis and the release or accessibility of ribosomal nucleic acids from the cells to be detected by the pan-bacterial probe.

[2] = system: mecA gene; ribosomal nucleic acids; test: HPA, base treatment with and without thermal lysis (Example 4)
Experimental: The effect of base treatment with and without the heat treatment in lysis buffer was evaluated using a S. aureus specimen (GP1217, ATCC #33591). In this procedure the sample was treated with 0.8 N LiOH and thermal lysis was conducted by heat treatment for 15 minutes. Other conditions were as described above. Probe 1 labeled with acridinium ester was used in this procedure.

[3] = system: mecA gene; Staphylococcus ribosomal nucleic acids; test: HPA after thermal lysis, base hydrolysis and neutralization (Examples 5-7)
[4] = Table 7, lysis 15 minutes, hybridization 45 minutes
[5] = Table 8, lysis 15 minutes, hybridization 45 minutes
[6] = Table 9, lysis 10 minutes, hybridization 20 minutes
[7] = Table 10, neutralize 100 μl 2 N HCl containing 200 mM succinate, hybridize 45 minutes at 60° C.

With “GGTATGTGGAAGTTAGATTGGGATCATAGCG (AE label, linker between 13 and 14, chemistry not fully specified; listed as Staphylococcus aureus) [Probe 1]” the “AE-probe Average RLU” value ([1]; No Specimen) was 431 RLU, the “AE-probe Average RLU” value ([1]; S. aureus specimen #99, mecA PCR Pos) was 2664 RLU and the “AE-probe Average RLU” value ([1]; S. aureus specimen #100, mecA PCR Neg) was 590 RLU. The “AE-Probe Signal (RLU)” value ([1]; Table 2, Negative Control) was 1817 RLU, the “AE-Probe Signal (RLU)” value ([1]; Table 2, specimen 10, mecA PCR Neg, pan-bacterial diluted 1:3000 prior to luminometry) was 2918 RLU and the “AE-Probe Signal (RLU)” value ([1]; Table 2, specimen 99, mecA PCR Pos, pan-bacterial diluted 1:3000 prior to luminometry) was 5822 RLU. For the same sequence, the “AE-Probe Signal (RLU)” value ([1]; Table 2, specimen 100, mecA PCR Neg, pan-bacterial diluted 1:3000 prior to luminometry) was 815 RLU, the “AE-Probe Signal (RLU)” value ([1]; Table 2, specimen 101, mecA PCR Neg, pan-bacterial diluted 1:3000 prior to luminometry) was 2768 RLU and the “AE-Probe Signal (RLU)” value ([1]; Table 2, specimen 102, mecA PCR Pos, pan-bacterial diluted 1:3000 prior to luminometry) was 5623 RLU. For the same sequence, the “AE-Probe Signal (RLU)” value ([1]; Table 2, specimen 103, mecA PCR Neg, pan-bacterial diluted 1:3000 prior to luminometry) was 1097 RLU, the “AE-Probe Signal (RLU)” value ([1]; Table 2, specimen 104, mecA PCR Neg, pan-bacterial diluted 1:3000 prior to luminometry) was 959 RLU and the “AE-Probe Signal (RLU)” value ([1]; Table 2, specimen 105, mecA PCR Neg, pan-bacterial diluted 1:3000 prior to luminometry) was 1086 RLU. For the same sequence, the “AE-Probe Signal (RLU)” value ([1]; Table 2, specimen 106, mecA PCR Neg, pan-bacterial diluted 1:3000 prior to luminometry) was 1327 RLU, the “AE-Probe Signal (RLU)” value ([1]; Table 2, specimen 139, mecA PCR Pos, pan-bacterial diluted 1:3000 prior to luminometry) was 5755 RLU and the “AE-Probe Signal (RLU)” value ([1]; Table 2, specimen 140, mecA PCR Pos, pan-bacterial diluted 1:3000 prior to luminometry) was 3143 RLU. The “AE-Probe Signal (RLU)” value ([1]; Table 2, specimen 142, mecA PCR Pos, pan-bacterial diluted 1:3000 prior to luminometry) was 6845 RLU, the “AE-Probe Signal (RLU)” value ([1]; Table 2, specimen 145, mecA PCR Neg, pan-bacterial diluted 1:3000 prior to luminometry) was 997 RLU and the “AE-Probe Signal (RLU)” value ([1]; Table 2, specimen 148, mecA PCR Pos, pan-bacterial diluted 1:3000 prior to luminometry) was 10483 RLU. The “AE-Probe Signal (RLU)” value ([1]; Table 2, specimen 155, mecA PCR Neg, pan-bacterial diluted 1:3000 prior to luminometry) was 730 RLU, the “AE-Probe Signal (RLU)” value ([1]; Table 2, specimen 164, mecA PCR Neg, pan-bacterial diluted 1:3000 prior to luminometry) was 1546 RLU and the “AE-Probe Signal (RLU)” value ([1]; Table 2, specimen 178, mecA PCR Pos, pan-bacterial diluted 1:3000 prior to luminometry) was 7772 RLU. The “AE-Probe Signal (RLU)” value ([1]; Table 2, specimen 188, mecA PCR Pos, pan-bacterial diluted 1:3000 prior to luminometry) was 11856 RLU, the “AE-Probe Signal (RLU)” value ([1]; Table 2, specimen 270, mecA PCR Pos, pan-bacterial diluted 1:3000 prior to luminometry) was 9256 RLU and the “AE-Probe Signal (RLU)” value ([1]; Table 2, specimen 296, mecA PCR Pos, Lab Pos control, pan-bacterial diluted 1:3000 prior to luminometry) was 5567 RLU. For the same sequence, the RLU ([2]; GP1217, Base treatment 30 minutes at 60° C.) was 16016 RLU, the RLU ([2]; GP1217, Thermal lysis 15 minutes at 100° C. + Base treatment 15 minutes at 60° C.) was 38017 RLU and the RLU ([2]; Table 5, Negative Control) was 592 RLU. The RLU ([3]; Table 6, GP18(Neg), MSSA ATCC #12600) was 821 RLU, the RLU ([3]; Table 6, GP1214(Neg), MSSA ATCC #29247) was 848 RLU and the RLU ([3]; Table 6, GP1217(Pos), MRSA ATCC #33591) was 53,322 RLU. The RLU ([3]; Table 6, GP1218(Pos), MRSA ATCC #43866) was 36,730 RLU, the “GP18(Neg) RLU” value [3, 4] was 757 RLU and the “GP1217(Pos) RLU” value [3, 4] was 25928 RLU. For the same sequence, the “Probe alone Avg RLU” value [3, 4] was 3668 RLU, the “GP18(Neg) RLU” value [3, 5] was 879 RLU and the “GP1217(Pos) RLU” value [3, 5] was 11485 RLU. The “Probe alone Avg RLU” value [3, 5] was 1123 RLU, the “GP1217(Pos) RLU” value [3, 6] was 27256 RLU and the “Probe alone Avg RLU” value [3, 6] was 2476 RLU. The “GP1214(Neg) RLU” value [3, 7] was 1844 RLU, the “GP1217(Pos) RLU” value [3, 7] was 37695 RLU and the “Probe alone Avg RLU” value [3, 7] was 2131 RLU.
